{
  "source": "patent US20250043349A1",
  "about": "“DEORPHANIZING ODORS USING SINGLE CELL SEQUENCING” (PRESIDENT AND FELLOWS OF HARVARD COLLEGE, priority 2021, published 2025)",
  "key": {"[1]": {"test_system": "acetophenone-responsive OSN subtypes", "assay": "Environment switch followed by Act-Seq", "type": "in vivo, mouse", "settings": "2 weeks after switch from home cage to new odor environment", "procedure": "To examine environment-dependent changes in gene expression and their effects on odor-evoked responses. Act-Seq was performed 2 weeks after environment switches. Adult mice (6-12 weeks old) were group-housed in the regular home-cage environment for at least one week before the transfer to their novel environments. Individual mice were transferred to a new disposable cage containing materials for a novel environment in the satellite animal facility. Two different novel environments were used, with each containing non-overlapping contents; Environment A (paper bedding, hay, dried flowers (such as marigold), peanuts, seeds (e.g., sunflower seeds, pumpkin seeds), puffed rice), and Environment B (garden soil, aspen shavings, coconut husks, dried fruits (e.g., berries, mango, pineapple), dried vegetables (e.g., green peas, corn, bell peppers), millet, fresh fruits (banana, apple, peach), corn flakes). Mice were singly-housed throughout the entire 2 weeks and were transferred to newly prepared environmental cages every 12 hours to minimize the contributions of any murine odors, which are likely the predominant odorants present within standard home-cage housing environments. After 2 weeks, individual mice were transferred to new empty disposable cages, and Act-Seq using acetophenone was performed as above."}, "[2]": {"test_system": "acetophenone-responsive OSN subtypes", "assay": "Transient naris occlusion followed by Act-Seq", "type": "in vivo, mouse", "settings": "10% acetophenone, 2 hours after unplugging", "procedure": "Because odor responses in occluded OSNs cannot be examined in the chronic occlusion experiment due to permanent cautery, transient unilateral naris occlusion was performed using removable nasal plugs. Adult mice (6-12 weeks old) were anesthetized by isoflurane and removal nasal plugs were inserted into one of the two nostrils, as previously described (Galliano et al., 2021; Kass et al., 2012). The occlusion was confirmed by measuring airflow from the occluded nostril via thermocouple. After 5 days, a subset of mice was used for scSeq experiment directly (control mice) to assess the effects of naris occlusion on changes in gene expression. Under brief anesthesia by isoflurane, the remaining mice were unplugged and transferred to a new empty disposable cage containing either DPG alone or 10% acetophenone. After 2 hours, mice were subjected to scSeq. Each of the two nostrils was used separately in both control (open and plugged) and odor-exposed mice (open and unplugged)."}, "OSN subtypes": {"test_system": "OSN subtypes", "assay": "Persistence of transcriptional changes: 2 h odor exposure, 22 h home cage, scSeq ES scores", "type": "in vivo, mouse", "settings": "two-hour exposure, measured after 24 hours", "procedure": "Act-Seq (Wu et al., 2017) was performed following odor exposure to quantify odor-evoked responses in each OSN subtype (defined by their expressed OR) across the entire OR repertoire. Mice were habituated to a reversed light cycle for at least for 1 week before odor exposure, transferred to a new disposable cage with regular bedding/food and kept overnight in a satellite animal facility. On the experimental day, each mouse was first transferred to a new empty disposable cage during the dark cycle and habituated for 20 minutes. Empty cages were used to avoid any activation by odorants present within the environments in which the mice were housed. Odors were added to a piece of filter paper (100 μL of odorant) in a 35 mm petri dish and a cotton ball (200 μL of odorant) and placed in each cage. After 2 hours, mice were euthanized, and dissociation was performed as described below. Odors used in this study were as follows. […]\nChanges in ES scores were evaluated by comparing the ES scores for each OSN subtype across experimental conditions. […] The changes in ES scores and z-scored functional gene expression across conditions for each OSN subtype are described. The relative ES score change for each OSN subtype was calculated by subtracting the mean across all OSN subtypes, to normalize for any global changes across conditions that were present across the population of OSNs."}, "Olfr923": {"test_system": "Olfr923", "settings": "Hu et al. 2020; Jiang et al. 2015; cited from earlier work"}},
  "data": [
    {"smiles": "CC(=O)c1ccccc1", "note": "[acetophenone]", "values": [
      {"measurement": "acetophenone-driven OSN activation scores across odor environments", "setting": "[1]", "result": "altered acetophenone-driven OSN activation scores in an environment-dependent manner"},
      {"measurement": "activation scores of acetophenone receptor-expressing OSNs from occluded (unplugged) vs open nostrils", "setting": "[2]", "result": "higher activation scores"},
      {"measurement": "ES scores after transient exposure", "setting": "OSN subtypes", "result": "did not change ES scores after 24 hours"},
      {"measurement": "affinity for Olfr923", "setting": "Olfr923", "result": "high affinity"}
    ]}
  ]
}
